Measured values published in article PMC7151106 (Pharmaceutics, 2020).

How the values were obtained:
SGLT2 [1] = molecular target: T1, SGLT2 (Homo sapiens, UniProt P31639); assay: Inhibition of [14C]AMG uptake in CHO-SGLT2 cells; format: cell-based; conditions: for IC50: 10 μM [14C]AMG uptake, 2 h, CHO-SGLT2 minus mock, mean ± SD, triplicate
T1 construct: host or cells: CHO
T1 sequence (P31639 1-672): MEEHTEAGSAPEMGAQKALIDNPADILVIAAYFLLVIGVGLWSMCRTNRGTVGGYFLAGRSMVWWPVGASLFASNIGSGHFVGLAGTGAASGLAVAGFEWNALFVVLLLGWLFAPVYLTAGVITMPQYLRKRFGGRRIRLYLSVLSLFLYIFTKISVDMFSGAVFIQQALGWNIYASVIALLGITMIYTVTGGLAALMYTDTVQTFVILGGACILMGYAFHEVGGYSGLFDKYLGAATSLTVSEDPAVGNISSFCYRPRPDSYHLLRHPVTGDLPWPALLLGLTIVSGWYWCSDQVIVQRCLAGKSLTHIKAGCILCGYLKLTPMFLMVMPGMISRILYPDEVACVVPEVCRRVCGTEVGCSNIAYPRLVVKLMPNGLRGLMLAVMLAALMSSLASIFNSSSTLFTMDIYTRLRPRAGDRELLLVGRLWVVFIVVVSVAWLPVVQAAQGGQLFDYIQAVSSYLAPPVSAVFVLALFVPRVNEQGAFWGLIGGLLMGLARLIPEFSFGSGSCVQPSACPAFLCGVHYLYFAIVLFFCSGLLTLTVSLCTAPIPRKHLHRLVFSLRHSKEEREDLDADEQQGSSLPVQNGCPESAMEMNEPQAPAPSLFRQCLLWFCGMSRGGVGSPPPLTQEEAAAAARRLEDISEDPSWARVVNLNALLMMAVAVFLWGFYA
Experimental: CHO cells overexpressing SGLT1 and SGLT2 cells (CHO-SGLT1 and -SGLT2) and CHO-mock cells were characterized as previously described. Cells were maintained in RPMI1640 medium supplemented with 10% fetal bovine serum and 200 µg/mL G418 at 37 °C in 5% CO2 conditions. CHO-SGLT1 and -SGLT2 cells were seeded at a density of 1 × 10^5 cells/well in 96-well plates. After 24 h, the growth medium was discarded from the cells, and the cells were washed with pre-warmed Na^+-free buffer (10 mM HEPES, 5 mM Tris, 140 mM choline chloride, 2 mM KCl, 1 mM CaCl2, 1 mM MgCl2, pH7.4) and incubated for 1 h in Na^+-free buffer. After replacing Na^+-free buffer with Na^+ gradient buffer (10 mM HEPES, 5 mM Tris, 140 mM NaCl, 2 mM KCl, 1 mM CaCl2, 1 mM MgCl2, pH7.4) containing 10 µM [^14C]AMG, the uptake of [^14C]AMG into the CHO-mock cells and CHO-SGLT1 and -SLGT2 cells was measured for 0.5, 1, 1.5, 2, and 3 h. After a predetermined incubation time, cells were washed three times with 200 µL of ice-cold Na^+-free buffer immediately after placing the plates on ice. Then, the cells were lysed with 10% SDS, and the cell lysates were mixed with Optiphase cocktail solution. Thereafter, the radioactivity of the cell lysates was measured using a liquid scintillation counter.
After 2 h, cells were washed three times with 200 µL of ice-cold Na^+-free buffer and the cells were lysed with 10% SDS (40 µL), followed by adding Optiphase cocktail solution (200 µL). The radioactivity of the cell lysates was measured using a liquid scintillation counter. The SGLT1 or SGLT2-mediated uptake of [^14C]AMG was calculated by the subtraction of the uptake rates of [^14C]AMG into the mock cells from those of the CHO-SGLT1 and -SLGT2 cells. In the inhibition studies, the percentages of the transport rate of AMG with or without SGLT2 inhibitors were calculated and the data were fitted to an inhibitory effect model. The IC50 (the concentration of the inhibitor to show half-maximal inhibition) values were calculated using Sigma Plot ver.10.0 (Systat Software, Inc.; San Jose, CA, USA).

OAT1 = test system: T2, OAT1; assay: Substrate specificity / uptake in HEK293-OAT1 cells; format: in vitro ADME; conditions: for Substrate for OAT1: HEK293-OAT1 vs mock, ± 20 μM probenecid
T2 construct: host or cells: HEK293
Experimental: HEK293-mock cells and HEK293 cells overexpressing OAT1 and OAT3 transporters (HEK293-OAT1 and -OAT3, respectively) were seeded in poly-D-lysine-coated 24-well plates at a density of 4 × 10^5 cells/well and cultured for 24 h in DMEM supplemented with 10% FBS and 5 mM non-essential amino acids at 37 °C in 8% CO2 condition.
For each experiment, the growth medium was discarded after 24 h, and the attached cells were washed with pre-warmed HBSS and incubated with pre-warmed HBSS for 20 min at 37 °C. To confirm the functionality of OAT1 and OAT3, we measured the uptake of 0.1 µM [^3H]PAH and 0.1 µM [^3H]ES, representative substrates for OAT1 and OAT3, respectively, into in the HEK293-mock cells and HEK293-OAT1 and -OAT3 cells, respectively, for 5 min in the presence and absence of 20 µM probenecid, a typical inhibitor for both OAT1 and OAT3 [8, 9]. The cells were then washed three times with 500 μL of ice-cold HBSS immediately after placing the plates on ice. Subsequently, cells were lysed with 10% sodium dodecyl sulfate and mixed with Optiphase cocktail solution overnight. The radioactivity of the cell lysate was measured using a liquid scintillation counter (Microbeta 2; Perkin Elmer Inc., Boston, MA, USA).
For the concentration dependency in the uptake of DWP16001, the uptake of DWP16001 in a concentration range of 0.5–50 μM dissolved in HBSS was measured for 5 min at 37 °C in the mock cells and HEK293-OAT1 and -OAT3 cells, respectively. After 5 min, the cells were washed three times with 500 μL of ice-cold HBSS immediately after placing the plates on ice.
In the concentration-dependent uptake studies, the transporter-mediated uptake of DWP16001 was calculated by the subtraction of the transport rates of DWP16001 into the mock cells from those of the HEK293-OAT1 and -OAT3 cells. Kinetic parameters for the OAT1- and OAT3-mediated transport of DWP16001 were determined using the Michaelis-Menten equation [V = Vmax⋅S/(Km + S)] [10].

SGLT2 [2] = molecular target: T1, SGLT2; assay: Mode of inhibition on SGLT2 (Dixon plots) in CHO-SGLT2 cells; format: cell-based; conditions: 1, 2.5, 5, 50 μM [14C]AMG
Experimental: The radioactivity of the cell lysate was measured following the same sample preparation method described above.

SGLT2 [3] = molecular target: T1, SGLT2; assay: Time dependency of SGLT2 inhibition (preincubation) in CHO-SGLT2 cells; format: cell-based; conditions: for IC50: 10 μM [14C]AMG, 2 h, CHO-SGLT2; for Time dependency of SGLT2 inhibition: pretreatment 0, 1, 2 h
Experimental: After 2 h of incubation, the radioactivity of the cell lysate was measured following the same sample preparation method described above.

[4] = HEK293-OAT1 minus mock, 0.5–50 μM, 5 min
[5] = without preincubation, read-out: IC50 (0 h)

Row | SMILES | Selectivity (IC50 Ratio of SGLT1/SGLT2) (SGLT2 [1]) | IC50 (SGLT2 [1]) [nM] | Increase of uptake in HEK293-OAT1 cells compared with mock cells (OAT1; 2 μM, 5 min) | Substrate for OAT1 (OAT1; 2 μM, 5 min) | OAT1-mediated uptake: CLint (OAT1; [4]) [µL/min] | OAT1-mediated uptake: Vmax (OAT1; [4]) [pmol/min] | Km at 5 min (OAT1; human, HEK293-OAT1 minus mock, 0.5–50 μM, read-out: OAT1-mediated uptake: Km) [µM] | Mode of inhibition on SGLT2 (SGLT2 [2]) | IC50 (SGLT2 [3]; IC50 (1 h), preincubation 1 h) [nM] | IC50 (SGLT2 [3]; IC50 (2 h), preincubation 2 h) [nM] | Time dependency of SGLT2 inhibition (SGLT2 [3]) | IC50 (SGLT2 [3]; [5]) [nM]
1 | OC[C@H]1O[C@@H](c2cc(Cc3ccc(C4CC4)cc3)c(Cl)c3c2CCO3)[C@H](O)[C@@H](O)[C@@H]1O [DWP16001] | 667 | 0.8 ± 0.3 | two-fold | a substrate | 3.1 | 119.2 | 38 | reversible and competitive | 0.7 | 0.8 | time-independent | 0.7
2 | OC[C@H]1O[C@@H](c2ccc(F)c(Cc3cc4ccccc4s3)c2)[C@H](O)[C@@H](O)[C@@H]1O [Ipragliflozin, ipragliflozin] | 261 | 8.9 ± 1.7 |  | not substrates |  |  |  | reversible and competitive | 11 | 9.9 | time-independent | 10.6
